# Measurements reported in ChEMBL document CHEMBL5352387, “Synthesis and biological evaluation of tyrosine derivatives as peripheral 5HT2A receptor antagonists for nonalcoholic fatty liver disease” (Eur J Med Chem, 2022).
# Active and inactive are the calls of the source. The calls are words filed in the database; no cut-off is given here.
# Tests used:
# [1] = molecular target: T1, 5-hydroxytryptamine receptor 2A (Homo sapiens, UniProt P28223); test: Inhibition of 5HT2A receptor (unknown origin) expressed in HEK293 cells at 1 uM by FLIPR Calcium 6 dye based assay relative to control; type: functional, cell-based
# Mus musculus [2] = test: Reduction in hepatic steatosis in high fat diet-induced NAFLD C57BL6/J mouse model assessed as reduction in adipose tissue inflammation at 1 mg/kg, ip measured after 8 weeks by H and E staining based analysis; type: functional, organism-based
# [3] = molecular target: 5-hydroxytryptamine receptor 5A (Homo sapiens) (UniProt P47898); test: Inhibition of 5HT5A receptor (unknown origin) at 1 uM relative to control
# Mus musculus [4] = test: Reduction in hepatic steatosis in high fat diet-induced NAFLD C57BL6/J mouse model assessed as decrease in size of adipocytes in inguinal white adipose tissue at 1 mg/kg, ip measured after 8 weeks by H and E staining based analysis; type: functional, organism-based
# [5] = Stability in rat liver microsomes assessed as parent compound remaining measured after 30 mins; type: ADME, Microsome; details: read-out: Stability
# [6] = molecular target: 5-hydroxytryptamine receptor 4 (Homo sapiens) (UniProt Q13639); test: Inhibition of 5HT4E receptor (unknown origin) at 1 uM relative to control
# Mus musculus [7] = test: Reduction in hepatic steatosis in high fat diet-induced NAFLD C57BL6/J mouse model assessed as reduction in serum AST level at 1 mg/kg, ip measured after 8 weeks; type: functional, organism-based
# Mus musculus [8] = test: Reduction in hepatic steatosis in high fat diet-induced NAFLD C57BL6/J mouse model assessed as increase in multilocular adipocytes at 1 mg/kg, ip measured after 8 weeks by H and E staining based analysis; type: functional, organism-based
# Mus musculus [9] = test: Reduction in hepatic steatosis in high fat diet-induced NAFLD C57BL6/J mouse model assessed as body weight gain at 1 mg/kg, ip measured after 8 weeks; type: functional, organism-based
# Mus musculus [10] = test: Reduction in hepatic steatosis in high fat diet-induced NAFLD C57BL6/J mouse model at 1 mg/kg, ip measured after 8 weeks; type: functional, organism-based
# [11] = molecular target: Serotonin 3 (5-HT3) receptor (Homo sapiens) (UniProt P46098+A5X5Y0+O95264+Q70Z44+Q8WXA8); test: Inhibition of 5HT3 receptor (unknown origin) at 1 uM relative to control; type: protein-complex assay
# [12] = molecular target: T2, 5-hydroxytryptamine receptor 2C (Homo sapiens) (UniProt P28335); test: Inhibition of 5HT2C receptor (unknown origin) at 1 uM relative to control
# T2 sequence (whole entry): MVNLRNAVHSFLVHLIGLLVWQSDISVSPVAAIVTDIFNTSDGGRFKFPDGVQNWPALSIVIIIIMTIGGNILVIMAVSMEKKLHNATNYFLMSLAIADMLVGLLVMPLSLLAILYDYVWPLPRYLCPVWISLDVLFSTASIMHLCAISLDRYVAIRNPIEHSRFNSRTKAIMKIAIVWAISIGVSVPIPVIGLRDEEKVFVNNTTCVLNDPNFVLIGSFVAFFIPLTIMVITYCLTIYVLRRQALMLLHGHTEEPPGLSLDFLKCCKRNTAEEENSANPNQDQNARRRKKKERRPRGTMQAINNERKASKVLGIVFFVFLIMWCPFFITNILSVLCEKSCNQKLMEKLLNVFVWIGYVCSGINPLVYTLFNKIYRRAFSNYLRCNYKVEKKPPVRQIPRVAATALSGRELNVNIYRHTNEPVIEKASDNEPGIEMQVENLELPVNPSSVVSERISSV
# Mus musculus [13] = test: Reduction in hepatic steatosis in high fat diet-induced NAFLD C57BL6/J mouse model assessed as reduction in serum ALT level at 1 mg/kg, ip measured after 8 weeks; type: functional, organism-based
# [14] = Stability in human liver microsomes assessed as parent compound remaining measured after 30 mins; type: ADME, Microsome; details: read-out: Stability
# Mus musculus [15] = test: Reduction in hepatic steatosis in high fat diet-induced NAFLD C57BL6/J mouse model assessed as decrease in size of lipid droplet in brown adipose tissue at 1 mg/kg, ip measured after 8 weeks by H and E staining based analysis; type: functional, organism-based
# [16] = Drug concentration in plasma of ICR mouse at 5 mg/kg, iv measured at 1 hr; type: ADME, organism-based
# Cytochrome P450 2D6 = Cytochrome P450 2D6 (Homo sapiens, UniProt P10635); test: Inhibition of CYP2D6 (unknown origin) relative to control; type: ADME
# [17] = molecular target: 5-hydroxytryptamine receptor 7 (Homo sapiens) (UniProt P34969); test: Inhibition of 5HT7 receptor (unknown origin) at 1 uM relative to control
# Mus musculus [18] = test: Reduction in hepatic steatosis in high fat diet-induced NAFLD C57BL6/J mouse model assessed as increase in lean body mass at 1 mg/kg, ip measured after 8 weeks; type: functional, organism-based
# [19] = Drug concentration in brain of ICR mouse at 5 mg/kg, iv measured at 1 hr; type: ADME, organism-based; details: read-out: Ct
# [20] = molecular target: T3, 5-hydroxytryptamine receptor 1A (Homo sapiens) (UniProt P08908); test: Inhibition of 5HT1A receptor (unknown origin) at 1 uM relative to control
# T3 sequence (whole entry): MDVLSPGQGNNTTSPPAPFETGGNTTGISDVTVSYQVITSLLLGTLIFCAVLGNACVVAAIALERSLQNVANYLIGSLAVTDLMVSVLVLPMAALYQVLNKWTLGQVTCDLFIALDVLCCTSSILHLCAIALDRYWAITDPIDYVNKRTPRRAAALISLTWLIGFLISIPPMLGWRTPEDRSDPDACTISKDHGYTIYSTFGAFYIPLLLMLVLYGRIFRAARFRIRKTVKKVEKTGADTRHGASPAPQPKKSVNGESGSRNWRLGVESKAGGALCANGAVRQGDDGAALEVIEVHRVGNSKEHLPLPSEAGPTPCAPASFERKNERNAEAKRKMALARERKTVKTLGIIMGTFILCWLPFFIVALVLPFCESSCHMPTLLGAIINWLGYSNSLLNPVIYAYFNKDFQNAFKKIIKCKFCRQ
# Cytochrome P450 1A2 = molecular target: T4, Cytochrome P450 1A2 (Homo sapiens, UniProt P05177); test: Inhibition of CYP1A2 (unknown origin) relative to control; type: ADME
# T4 sequence (P05177 whole entry): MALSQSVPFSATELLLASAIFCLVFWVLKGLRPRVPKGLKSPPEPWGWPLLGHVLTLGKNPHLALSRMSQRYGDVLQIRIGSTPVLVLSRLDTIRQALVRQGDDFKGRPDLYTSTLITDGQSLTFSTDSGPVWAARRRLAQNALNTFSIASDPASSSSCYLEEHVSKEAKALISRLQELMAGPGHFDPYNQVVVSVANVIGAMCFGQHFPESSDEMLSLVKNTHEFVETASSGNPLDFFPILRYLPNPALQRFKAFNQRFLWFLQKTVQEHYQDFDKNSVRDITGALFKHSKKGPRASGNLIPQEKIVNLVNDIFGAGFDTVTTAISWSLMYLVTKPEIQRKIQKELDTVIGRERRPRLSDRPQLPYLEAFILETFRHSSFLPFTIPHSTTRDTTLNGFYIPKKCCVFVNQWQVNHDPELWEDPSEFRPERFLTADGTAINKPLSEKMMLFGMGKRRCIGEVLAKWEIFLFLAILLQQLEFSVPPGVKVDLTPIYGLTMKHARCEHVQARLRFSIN
# Mus musculus [21] = test: Reduction in hepatic steatosis in high fat diet-induced NAFLD C57BL6/J mouse model assessed as reduction in hepatic triglyceride level at 1 mg/kg, ip measured after 8 weeks by colorimetric assay; type: functional, organism-based
# Mus musculus [22] = test: Reduction in hepatic steatosis in high fat diet-induced NAFLD C57BL6/J mouse model assessed as reduction in serum cholesterol level at 1 mg/kg, ip measured after 8 weeks; type: functional, organism-based
# Mus musculus [23] = test: Reduction in hepatic steatosis in high fat diet-induced NAFLD C57BL6/J mouse model assessed as reduction in fat body mass at 1 mg/kg, ip measured after 8 weeks; type: functional, organism-based
# Cytochrome P450 3A4 = Cytochrome P450 3A4 (Homo sapiens, UniProt P08684); test: Inhibition of CYP3A4 (unknown origin) relative to control; type: ADME
# Mus musculus [24] = test: Reduction in hepatic steatosis in high fat diet-induced NAFLD C57BL6/J mouse model assessed as decrease in size of adipocytes in epididymis white adipose tissue at 1 mg/kg, ip measured after 8 weeks by H and E staining based analysis; type: functional, organism-based
# [25] = Stability in mouse liver microsomes assessed as parent compound remaining measured after 30 mins; type: ADME, Microsome; details: read-out: Stability
# [26] = molecular target: T1, 5-hydroxytryptamine receptor 2A; test: Inhibition of 5HT2A receptor (unknown origin) expressed in HEK293 cells by FLIPR Calcium 6 dye based assay; type: functional, cell-based
# Mus musculus [27] = test: Reduction in hepatic steatosis in high fat diet-induced NAFLD C57BL6/J mouse model assessed as improved glucose tolerance at 1 mg/kg, ip measured after 8 weeks by glucometer analysis; type: functional, organism-based
# Mus musculus [28] = test: Reduction in hepatic steatosis in high fat diet-induced NAFLD C57BL6/J mouse model assessed as reduction in lobular inflammation at 1 mg/kg, ip measured after 8 weeks by H and E staining analysis; type: functional, organism-based
# Cytochrome P450 2C9 = Cytochrome P450 2C9 (Homo sapiens, UniProt P11712); test: Inhibition of CYP2C9 (unknown origin) relative to control; type: ADME
# Cytochrome P450 2C19 = Cytochrome P450 2C19 (Homo sapiens, UniProt P33261); test: Inhibition of CYP2C19 (unknown origin) relative to control; type: ADME
# [29] = molecular target: 5-hydroxytryptamine receptor 6 (Homo sapiens) (UniProt P50406); test: Inhibition of 5HT6 receptor (unknown origin) at 1 uM relative to control
# hERG = hERG (Homo sapiens, UniProt Q12809); test: Inhibition of hERG at 10 uM relative to control; type: toxicity
# Sequence of hERG (Q12809 whole entry): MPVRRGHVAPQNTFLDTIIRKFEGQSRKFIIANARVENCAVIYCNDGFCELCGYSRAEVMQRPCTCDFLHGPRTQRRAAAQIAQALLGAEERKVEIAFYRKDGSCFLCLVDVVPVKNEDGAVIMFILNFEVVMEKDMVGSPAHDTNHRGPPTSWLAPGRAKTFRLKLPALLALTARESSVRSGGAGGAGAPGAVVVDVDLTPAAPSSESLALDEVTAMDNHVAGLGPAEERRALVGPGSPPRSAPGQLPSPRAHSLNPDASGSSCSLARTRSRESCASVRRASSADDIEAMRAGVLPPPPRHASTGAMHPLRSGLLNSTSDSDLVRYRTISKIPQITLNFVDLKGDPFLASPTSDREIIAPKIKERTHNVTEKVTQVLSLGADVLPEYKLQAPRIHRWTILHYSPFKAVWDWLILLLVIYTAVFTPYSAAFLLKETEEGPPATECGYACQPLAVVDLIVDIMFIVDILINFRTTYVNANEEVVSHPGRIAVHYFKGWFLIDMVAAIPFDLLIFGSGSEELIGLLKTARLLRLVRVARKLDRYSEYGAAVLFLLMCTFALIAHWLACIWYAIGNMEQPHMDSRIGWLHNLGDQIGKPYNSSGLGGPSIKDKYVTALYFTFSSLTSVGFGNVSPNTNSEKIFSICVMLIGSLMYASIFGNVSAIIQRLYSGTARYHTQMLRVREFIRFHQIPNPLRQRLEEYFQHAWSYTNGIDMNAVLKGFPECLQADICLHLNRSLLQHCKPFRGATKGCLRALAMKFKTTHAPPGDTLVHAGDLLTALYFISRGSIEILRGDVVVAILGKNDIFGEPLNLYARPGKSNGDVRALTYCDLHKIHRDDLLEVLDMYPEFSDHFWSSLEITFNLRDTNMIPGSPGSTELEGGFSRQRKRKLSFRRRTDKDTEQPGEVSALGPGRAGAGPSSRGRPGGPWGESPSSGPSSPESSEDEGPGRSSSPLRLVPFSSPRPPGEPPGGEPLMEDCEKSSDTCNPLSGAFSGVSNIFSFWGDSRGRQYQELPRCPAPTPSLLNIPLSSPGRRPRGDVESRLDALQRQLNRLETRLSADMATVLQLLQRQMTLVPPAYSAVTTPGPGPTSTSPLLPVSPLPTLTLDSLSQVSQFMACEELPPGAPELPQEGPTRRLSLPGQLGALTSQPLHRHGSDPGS
# T1 sequence (P28223 whole entry): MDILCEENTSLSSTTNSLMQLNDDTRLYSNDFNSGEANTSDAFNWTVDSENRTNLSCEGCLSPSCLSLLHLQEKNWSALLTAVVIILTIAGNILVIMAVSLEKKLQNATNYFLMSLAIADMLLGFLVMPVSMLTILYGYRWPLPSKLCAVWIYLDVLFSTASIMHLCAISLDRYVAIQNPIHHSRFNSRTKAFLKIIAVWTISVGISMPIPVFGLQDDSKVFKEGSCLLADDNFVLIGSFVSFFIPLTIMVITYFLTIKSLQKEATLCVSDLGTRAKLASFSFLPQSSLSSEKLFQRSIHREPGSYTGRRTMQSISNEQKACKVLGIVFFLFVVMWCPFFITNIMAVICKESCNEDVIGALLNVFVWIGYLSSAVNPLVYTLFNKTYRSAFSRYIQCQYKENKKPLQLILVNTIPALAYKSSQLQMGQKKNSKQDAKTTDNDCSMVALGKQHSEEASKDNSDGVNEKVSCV
# Sequence of 5-hydroxytryptamine receptor 7 (Homo sapiens) (P34969 whole entry): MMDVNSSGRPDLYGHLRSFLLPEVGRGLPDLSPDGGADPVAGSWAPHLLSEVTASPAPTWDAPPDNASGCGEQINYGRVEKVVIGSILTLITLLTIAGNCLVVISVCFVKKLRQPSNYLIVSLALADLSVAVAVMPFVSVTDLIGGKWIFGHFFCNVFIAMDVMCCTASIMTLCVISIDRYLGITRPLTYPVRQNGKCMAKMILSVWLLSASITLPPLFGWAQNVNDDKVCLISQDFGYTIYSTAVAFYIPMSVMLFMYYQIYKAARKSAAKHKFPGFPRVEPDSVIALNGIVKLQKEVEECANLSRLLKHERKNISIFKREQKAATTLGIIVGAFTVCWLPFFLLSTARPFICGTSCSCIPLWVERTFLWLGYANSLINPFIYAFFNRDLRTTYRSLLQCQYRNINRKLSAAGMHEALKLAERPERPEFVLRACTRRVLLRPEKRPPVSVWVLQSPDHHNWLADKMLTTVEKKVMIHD
# Sequence of Cytochrome P450 2C9 (P11712 whole entry): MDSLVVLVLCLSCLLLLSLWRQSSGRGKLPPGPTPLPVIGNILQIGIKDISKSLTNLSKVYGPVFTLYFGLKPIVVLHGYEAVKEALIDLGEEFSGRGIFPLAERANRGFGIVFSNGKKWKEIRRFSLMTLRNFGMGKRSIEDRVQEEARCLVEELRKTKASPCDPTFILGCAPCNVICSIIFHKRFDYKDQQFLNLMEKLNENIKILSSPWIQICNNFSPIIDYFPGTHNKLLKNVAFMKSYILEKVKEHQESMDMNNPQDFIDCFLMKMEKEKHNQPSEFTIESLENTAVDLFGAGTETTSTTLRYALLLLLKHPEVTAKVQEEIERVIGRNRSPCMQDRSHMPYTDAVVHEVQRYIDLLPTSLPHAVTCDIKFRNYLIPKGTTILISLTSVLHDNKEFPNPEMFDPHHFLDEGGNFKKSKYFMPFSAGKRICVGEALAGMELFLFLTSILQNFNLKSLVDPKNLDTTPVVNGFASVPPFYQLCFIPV
# Sequence of Cytochrome P450 3A4 (P08684 whole entry): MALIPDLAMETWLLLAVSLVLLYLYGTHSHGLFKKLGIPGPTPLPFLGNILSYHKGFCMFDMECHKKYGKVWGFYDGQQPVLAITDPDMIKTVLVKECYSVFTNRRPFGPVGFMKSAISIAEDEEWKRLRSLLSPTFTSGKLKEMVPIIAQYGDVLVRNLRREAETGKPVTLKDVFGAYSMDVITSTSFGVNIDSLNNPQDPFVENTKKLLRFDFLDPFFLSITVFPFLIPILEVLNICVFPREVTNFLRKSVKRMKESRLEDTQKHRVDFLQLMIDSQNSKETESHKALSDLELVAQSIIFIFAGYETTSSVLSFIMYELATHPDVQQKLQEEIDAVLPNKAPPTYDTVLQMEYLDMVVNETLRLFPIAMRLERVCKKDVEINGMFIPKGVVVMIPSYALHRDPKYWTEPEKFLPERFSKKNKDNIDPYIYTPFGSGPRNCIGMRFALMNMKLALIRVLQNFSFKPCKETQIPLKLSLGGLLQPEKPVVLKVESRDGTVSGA
# Sequence of 5-hydroxytryptamine receptor 6 (Homo sapiens) (P50406 whole entry): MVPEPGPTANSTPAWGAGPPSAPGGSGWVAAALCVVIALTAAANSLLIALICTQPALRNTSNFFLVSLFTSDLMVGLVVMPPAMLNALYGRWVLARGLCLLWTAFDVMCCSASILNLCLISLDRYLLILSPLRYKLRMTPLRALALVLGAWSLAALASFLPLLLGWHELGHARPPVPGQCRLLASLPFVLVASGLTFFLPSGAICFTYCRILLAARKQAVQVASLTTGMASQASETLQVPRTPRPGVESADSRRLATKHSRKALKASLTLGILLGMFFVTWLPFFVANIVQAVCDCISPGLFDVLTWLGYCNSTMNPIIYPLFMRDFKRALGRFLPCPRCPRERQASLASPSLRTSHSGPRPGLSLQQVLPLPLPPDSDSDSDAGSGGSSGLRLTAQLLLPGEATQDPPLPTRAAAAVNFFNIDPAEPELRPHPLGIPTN
# Sequence of 5-hydroxytryptamine receptor 4 (Homo sapiens) (Q13639 whole entry): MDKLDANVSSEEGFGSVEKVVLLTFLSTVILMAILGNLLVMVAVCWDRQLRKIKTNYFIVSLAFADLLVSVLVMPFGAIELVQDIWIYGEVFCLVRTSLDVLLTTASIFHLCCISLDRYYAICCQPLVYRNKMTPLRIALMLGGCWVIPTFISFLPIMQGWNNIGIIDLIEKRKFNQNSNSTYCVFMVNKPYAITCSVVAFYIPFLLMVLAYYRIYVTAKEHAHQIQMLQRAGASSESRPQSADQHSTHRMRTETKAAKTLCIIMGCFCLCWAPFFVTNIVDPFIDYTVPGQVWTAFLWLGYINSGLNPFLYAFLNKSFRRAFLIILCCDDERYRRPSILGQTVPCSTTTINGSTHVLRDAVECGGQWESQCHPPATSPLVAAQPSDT
# Sequence of Cytochrome P450 2D6 (P10635 whole entry): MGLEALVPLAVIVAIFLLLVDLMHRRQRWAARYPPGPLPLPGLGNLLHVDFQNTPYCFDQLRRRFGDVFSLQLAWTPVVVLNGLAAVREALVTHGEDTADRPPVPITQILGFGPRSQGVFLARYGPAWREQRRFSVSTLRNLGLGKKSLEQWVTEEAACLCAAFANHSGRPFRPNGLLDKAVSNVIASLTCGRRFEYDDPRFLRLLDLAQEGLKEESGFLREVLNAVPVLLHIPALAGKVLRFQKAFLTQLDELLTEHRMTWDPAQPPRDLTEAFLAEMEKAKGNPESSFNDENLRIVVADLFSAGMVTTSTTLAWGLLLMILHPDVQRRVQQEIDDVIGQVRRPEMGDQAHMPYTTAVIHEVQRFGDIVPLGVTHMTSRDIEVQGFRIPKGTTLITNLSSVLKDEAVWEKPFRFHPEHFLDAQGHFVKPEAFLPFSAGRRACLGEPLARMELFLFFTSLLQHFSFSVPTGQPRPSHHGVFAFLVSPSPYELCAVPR
# Sequence of Cytochrome P450 2C19 (P33261 whole entry): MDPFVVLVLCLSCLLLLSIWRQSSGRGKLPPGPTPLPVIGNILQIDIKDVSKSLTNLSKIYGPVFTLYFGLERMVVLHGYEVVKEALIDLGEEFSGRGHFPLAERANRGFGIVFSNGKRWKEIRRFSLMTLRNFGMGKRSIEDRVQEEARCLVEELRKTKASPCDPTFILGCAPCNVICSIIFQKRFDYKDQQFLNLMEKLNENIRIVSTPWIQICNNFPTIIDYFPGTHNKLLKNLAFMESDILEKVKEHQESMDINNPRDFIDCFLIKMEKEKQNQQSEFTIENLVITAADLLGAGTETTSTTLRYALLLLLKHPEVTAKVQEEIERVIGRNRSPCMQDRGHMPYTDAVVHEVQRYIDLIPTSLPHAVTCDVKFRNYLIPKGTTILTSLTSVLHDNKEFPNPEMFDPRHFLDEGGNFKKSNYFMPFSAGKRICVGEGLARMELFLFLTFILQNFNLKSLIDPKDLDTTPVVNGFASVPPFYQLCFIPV
compound,measurement,setting,value
N[C@@H](Cc1ccc(OCCN2CCC(c3noc4cc(F)ccc34)CC2)cc1)C(=O)O,inhibition,[1],74.8%
Cl.Cl.N[C@@H](Cc1ccc(OCCCN2CCC(c3noc4cc(F)ccc34)CC2)cc1)C(=O)O,Activity,Mus musculus [2],Active
same,inhibition,[3],16%
same,Activity,Mus musculus [4],Active
same,remaining at 0.5 h,[5],98.5%
same,inhibition,[6],50.4%
same,Activity,Mus musculus [7],Active
same,Activity,Mus musculus [8],Active
same,Activity,Mus musculus [9],Active
same,Activity,Mus musculus [10],Active
same,inhibition,[11],22%
same,inhibition,[12],98%
same,Activity,Mus musculus [13],Active
same,remaining at 0.5 h,[14],> 99%
same,Activity,Mus musculus [15],Active
same,concentration at 1 h,[16],901 ng/mL
same,inhibition (INH),Cytochrome P450 2D6,31.9%
same,inhibition,[17],24%
same,Activity,Mus musculus [18],Active
same,concentration at 1 h,[19],< 7.8 ng/mL
same,inhibition,[20],68%
same,inhibition (INH),Cytochrome P450 1A2,4.3%
same,Activity,Mus musculus [21],Active
same,Activity,Mus musculus [22],inactive
same,Activity,Mus musculus [23],Active
same,inhibition (INH),Cytochrome P450 3A4,< 1%
same,Activity,Mus musculus [24],Active
same,remaining at 0.5 h,[25],> 99%
same,IC50,[26],0.17 nM
same,Activity,Mus musculus [27],Active
same,Activity,Mus musculus [28],Active
same,inhibition,[1],92%
same,inhibition (INH),Cytochrome P450 2C9,1.8%
same,inhibition (INH),Cytochrome P450 2C19,< 1%
same,inhibition,[29],4%
same,inhibition at 10 µM,hERG,30.9%
N[C@@H](Cc1ccc(OCCCCN2CCC(c3noc4cc(F)ccc34)CC2)cc1)C(=O)O,IC50,[26],3.6 nM
same,inhibition,[1],91.4%
O=C(O)CCc1ccc(OCCN2CCN(c3nsc4ccccc34)CC2)cc1,concentration at 1 h,[16],114 ng/mL
same,concentration at 1 h,[19],< 7.8 ng/mL
same,inhibition,[1],43.4%
Cl.Cl.N[C@@H](Cc1ccc(OCCN2CCN(c3nsc4ccccc34)CC2)cc1)C(=O)O,concentration at 1 h,[16],165 ng/mL
same,concentration at 1 h,[19],< 7.8 ng/mL
same,inhibition,[1],73.9%
Cl.Cl.N[C@@H](Cc1ccc(OCC(O)CN2CCC(c3noc4cc(F)ccc34)CC2)cc1)C(=O)O (stereo partly drawn),concentration at 1 h,[16],1230 ng/mL
same,concentration at 1 h,[19],< 7.8 ng/mL
same,IC50,[26],2.15 nM
same,inhibition,[1],90.8%
O=C(O)Cc1ccc(OCCN2CCN(c3nsc4ccccc34)CC2)cc1,inhibition,[1],9.53%
N[C@@H](Cc1ccc(OCCN2CCN(c3cccc(Cl)c3Cl)CC2)cc1)C(=O)O,inhibition,[1],43.2%
O=C(O)c1ccc(OCCN2CCN(c3nsc4ccccc34)CC2)cc1,inhibition,[1],33.3%
N[C@H](Cc1ccc(OCCN2CCN(c3nsc4ccccc34)CC2)cc1)C(=O)O,inhibition,[1],53.4%
N[C@@H](Cc1ccc(OCCN2CCC(C(=O)c3ccc(F)cc3)CC2)cc1)C(=O)O,inhibition,[1],35.1%
